The numbers were not newly measured in patent US20120087953A1, “PHARMACEUTICAL COMPOSITIONS OF ACTIVE PHARMACEUTICAL INGREDIENT COMPRISING SULPHONYLUREA MOIETY WITH EXCELLENT DISSOLUTION PROPERTIES” (LEK PHARMACEUTICALS D.D., priority 2009, published 2012), which cites them from elsewhere.

For this data set the following is noted: acidic medium, 37° C.

Consider `CCC1=C(C)CN(C(=O)NCCc2ccc(S(=O)(=O)NC(=O)N[C@H]3CC[C@H](C)CC3)cc2)C1=O` [glimepiride], for which the solubility entry was “less than 0.001 mg/mL”.
